From patent US20100249145A1, “Inhibitors of VEGF Receptor and HGF Receptor Signaling” (Methylgene, Inc., priority 2005, published 2010)

Legend:
[1] = target: T1, recombinant human c-Met/HGF receptor (Homo sapiens, UniProt P08581); assay: In vitro receptor tyrosine kinase assay (DELFIA), c-Met/HGF receptor; assay type: biochemical; conditions: Table 30; ATP 10 uM, enzyme 25 nM; read-out: C-Met (enz.) (IC50)
T1 construct: His tag (histidine tag from pBlueBacHis2A); made in house; host or cells: Hi-5 cells (Trichoplusia ni), recombinant baculovirus

VEGF receptor KDR = target: T2, VEGF receptor KDR (Homo sapiens, UniProt P35968); assay: In vitro receptor tyrosine kinase assay (DELFIA), VEGF receptor KDR; assay type: biochemical; conditions: Table 30; ATP 0.6 uM, enzyme 5 nM; read-out: VEGF(enz.) (IC50)
T2 construct: made in house; host or cells: Sf9 cells (Spodoptera frugiperda), recombinant baculovirus

TPR-MET fusion protein = TPR-MET fusion protein (Homo sapiens, UniProt P08581); assay: C-Met phosphorylation cell-based assay (MNNGHOS cells, immunoblot); conditions: Table 30, 3 hours treatment, read-out: C-Met cell-based Y1230-34-35 tpr-met inhibition (IC50)
Source text: C-Met Phosphorylation Cell-Based Assay

SW48 = assay: In vivo solid tumor disease model, SW48 xenograft; design: species or system female athymic CD 1 mice; conditions: 30 mg/kg once daily IP, vehicle DMSO, 14 days
HCT116 = assay: In vivo solid tumor disease model, HCT116 xenograft; design: species or system female athymic CD 1 mice
U87 cells = assay: In vivo solid tumor disease model, U87 xenograft; design: species or system female athymic CD 1 mice; conditions: U87MG
Source text: (§1) In Vivo Solid Tumor Disease Model
(§2) This test measures the capacity of compounds to inhibit solid tumor growth.
(§3) Tumor xenografts were established in the flank of female athymic CD 1 mice (Charles River Inc.), by subcutaneous injection of 1×10^6U87, A431 or SKLMS cells/mouse. Once established, tumors were then serially passaged s.c. in nude mice hosts. Tumor fragments from these host animals were used in subsequent compound evaluation experiments. For compound evaluation experiments female nude mice weighing approximately 20 g were implanted s.c. by surgical implantation with tumor fragments of ˜30 mg from donor tumors. When the tumors were approximately 100 mm^3 in size (˜7-10 days following implantation), the animals were randomized a separated into treatment and control groups. Each group contained 6-8 tumor-bearing mice, each of which was ear-tagged and followed individually throughout the experiment
(§4) Mice were weighed and tumor measurements are taken by calipers three times weekly, starting on Day 1. These tumor measurements were converted to tumor volume by the well-known formula (L+W/4)^34/3π. The experiment was terminated when the control tumors reached a size of approximately 1500 mm^3. In this model, the change in mean tumor volume for a compound treated group/the change in mean tumor volume of the control group (non-treated or vehicle treated)×100 (ΔT/ΔC) was subtracted from 100 to give the percent tumor growth inhibition (% TGI) for each test compound. In addition to tumor volumes, body weight of animals were monitored twice weekly for up to 3 weeks.
(§5) Regiment of administration was once daily.

A431 cells = assay: In vivo solid tumor disease model, A431 xenograft; design: species or system female athymic CD 1 mice; conditions: 30 mg/kg once daily IP, vehicle DMSO, 14 days
Source text: as §1, §2, §3, §4, §5

SKLMS cells = assay: In vivo solid tumor disease model, SKLMS xenograft; design: species or system female athymic CD 1 mice; conditions: SKLMS40
Source text: as §1, §2, §3, §4, §5

A549 = assay: In vivo solid tumor disease model, A549 xenograft; design: species or system female athymic CD 1 mice
MKN74 = assay: In vivo solid tumor disease model, MKN74 xenograft; design: species or system female athymic CD 1 mice; conditions: vehicle DMSO, 10 days
DU145 = assay: In vivo solid tumor disease model, DU145 xenograft; design: species or system female athymic CD 1 mice; conditions: 10 days
[2] = 30 mg/kg once daily IP, vehicle DMSO, 14 days
[3] = 15 mg/kg once daily IP, vehicle DMSO, 10 days
[4] = 15 mg/kg once daily IV, vehicle 50/50 DMSO:40/60 PEG/0.2 N HCl in saline, 10 days
[5] = 30 mg/kg once daily IP, vehicle DMSO, 10 days
[6] = 30 mg/kg once daily IV, vehicle 50/50 DMSO:40/60 PEG/0.2 N HCl in saline, 10 days
[7] = 100 mg/kg once daily PO, vehicle 5% DMSO - 1% Tween-80 in water, 14 days
[8] = 75 mg/kg once daily PO, vehicle 5% DMSO - 1% Tween-80 in water, 10 days
[9] = 75 mg/kg once daily PO, vehicle 5% DMSO - 1% Tween-80 in water, 12 days
[10] = 15 mg/kg once daily IP, vehicle DMSO
[11] = 30 mg/kg once daily IP, vehicle DMSO
[12] = 75 mg/kg once daily PO, vehicle 5% DMSO - 1% Tween-80 in water, 14 days

T1 sequence (P08581 1078-1337): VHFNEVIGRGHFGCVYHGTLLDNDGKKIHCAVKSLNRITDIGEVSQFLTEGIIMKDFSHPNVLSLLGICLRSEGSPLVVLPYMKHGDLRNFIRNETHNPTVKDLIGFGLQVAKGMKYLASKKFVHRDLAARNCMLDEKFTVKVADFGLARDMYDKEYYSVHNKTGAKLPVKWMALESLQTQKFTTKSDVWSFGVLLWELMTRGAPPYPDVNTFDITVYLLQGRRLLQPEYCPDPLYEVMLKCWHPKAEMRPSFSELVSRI
Chain of TPR-MET fusion protein (P08581 with tags, fused parts or gaps): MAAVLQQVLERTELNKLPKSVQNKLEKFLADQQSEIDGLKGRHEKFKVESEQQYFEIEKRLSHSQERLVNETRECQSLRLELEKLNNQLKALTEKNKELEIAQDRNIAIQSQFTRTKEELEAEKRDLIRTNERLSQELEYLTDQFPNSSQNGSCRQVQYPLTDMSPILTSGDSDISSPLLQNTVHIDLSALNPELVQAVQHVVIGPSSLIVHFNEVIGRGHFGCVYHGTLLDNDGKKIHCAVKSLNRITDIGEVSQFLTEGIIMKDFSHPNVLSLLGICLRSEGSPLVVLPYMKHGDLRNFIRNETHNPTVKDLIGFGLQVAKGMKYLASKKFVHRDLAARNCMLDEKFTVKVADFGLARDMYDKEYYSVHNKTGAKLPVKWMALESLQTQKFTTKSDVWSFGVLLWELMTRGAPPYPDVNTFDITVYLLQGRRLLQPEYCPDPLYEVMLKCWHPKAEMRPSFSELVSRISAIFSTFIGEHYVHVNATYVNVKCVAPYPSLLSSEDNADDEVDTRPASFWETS
T2 sequence (P35968 806-1356): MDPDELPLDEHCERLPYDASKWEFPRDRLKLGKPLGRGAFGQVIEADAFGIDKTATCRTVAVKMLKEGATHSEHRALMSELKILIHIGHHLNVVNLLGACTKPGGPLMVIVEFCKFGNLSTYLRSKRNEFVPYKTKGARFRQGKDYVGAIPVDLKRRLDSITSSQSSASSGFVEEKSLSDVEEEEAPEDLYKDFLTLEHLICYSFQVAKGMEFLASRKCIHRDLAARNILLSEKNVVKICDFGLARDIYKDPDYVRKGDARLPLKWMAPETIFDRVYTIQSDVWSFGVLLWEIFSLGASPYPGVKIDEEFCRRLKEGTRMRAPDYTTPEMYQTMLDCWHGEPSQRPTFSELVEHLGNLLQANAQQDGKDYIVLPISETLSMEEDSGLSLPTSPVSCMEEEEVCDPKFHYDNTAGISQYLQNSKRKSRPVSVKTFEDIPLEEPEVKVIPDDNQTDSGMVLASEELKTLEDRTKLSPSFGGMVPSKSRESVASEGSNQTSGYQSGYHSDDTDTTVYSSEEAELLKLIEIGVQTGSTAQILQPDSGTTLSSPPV

SMILES: CCN(CC)C(=O)c1cc2nccc(Oc3ccc(NC(=S)NC(=O)Cc4ccccc4)cc3F)c2s1 [Example 7, 1-(4-(2-(diethylcarbamoyl)thieno[3,2-b]pyridin-7-yloxy)-3-fluorophenyl)-3-(2-phenylacetyl)thiourea]
- IC50 [1]: 50 to 250 nM
- IC50 (VEGF receptor KDR): 250 to 500 nM
- IC50 (TPR-MET fusion protein): 50 to 250 nM
- Tumor Growth Inhibition (%) (SW48): c (% TGI in the range of 25-49)
- Tumor Growth Inhibition (%) (HCT116; HCT116, 30 mg/kg once daily IP, vehicle DMSO, 14 days): b (% TGI in the range of 50-74)

SMILES: O=C(Cc1ccccc1)NC(=S)Nc1ccc(Oc2ccnc3cc(-c4nccs4)sc23)c(F)c1 [Example 12, 1-(4-(2-(Thiazol-2-yl)thieno[3,2-b]pyridin-7-yloxy)-3-fluorophenyl)-3-(2-phenylacetyl)thiourea]
- IC50 [1]: 50 to 250 nM
- IC50 (VEGF receptor KDR): < 50 nM
- IC50 (TPR-MET fusion protein): < 50 nM
- Tumor Growth Inhibition (%) (U87 cells; [2]): b (% TGI in the range of 50-74)
- Tumor Growth Inhibition (%) (HCT116; HST116, 30 mg/kg once daily IP, vehicle DMSO, 14 days): c (% TGI in the range of 25-49)

SMILES: Cn1ccnc1-c1cc2nccc(Oc3ccc(NC(=S)NC(=O)Cc4ccccc4)cc3F)c2s1 [Example 15, N-(3-Fluoro-4-(2-(1-methyl-1H-imidazol-2-yl)thieno[3,2-b]pyridin-7-yloxy)phenylcarbamothioyl)-2-phenylacetamide]
- IC50 (VEGF receptor KDR): < 50 nM
- Tumor Growth Inhibition (%) (U87 cells; [3]): b (% TGI in the range of 50-74)
- Tumor Growth Inhibition (%) (U87 cells; [4]): b (% TGI in the range of 50-74)
- Tumor Growth Inhibition (%) (U87 cells; [5]): b (% TGI in the range of 50-74)
- Tumor Growth Inhibition (%) (U87 cells; [2]): b (% TGI in the range of 50-74)
- Tumor Growth Inhibition (%) (U87 cells; [6]): b (% TGI in the range of 50-74)
- Tumor Growth Inhibition (%) (U87 cells; [7]): a (% TGI in the range of 75-100)
- Tumor Growth Inhibition (%) (A431 cells): b (% TGI in the range of 50-74)
- Tumor Growth Inhibition (%) (SKLMS cells; [5]): b (% TGI in the range of 50-74)
- Tumor Growth Inhibition (%) (A549; [2]): b (% TGI in the range of 50-74)
- Tumor Growth Inhibition (%) (A549; 50 mg/kg once daily PO, vehicle 5% DMSO - 1% Tween-80 in water, 11 days): c (% TGI in the range of 25-49)
- Tumor Growth Inhibition (%) (A549; [8]): b (% TGI in the range of 50-74)
- Tumor Growth Inhibition (%) (A549; [9]): c (% TGI in the range of 25-49)
- Tumor Growth Inhibition (%) (MKN74; 15 mg/kg once daily IP): c (% TGI in the range of 25-49)
- Tumor Growth Inhibition (%) (MKN74; 30 mg/kg once daily IP): c (% TGI in the range of 25-49)
- Tumor Growth Inhibition (%) (HCT116; HCT116, 15 mg/kg once daily IP, vehicle DMSO, 10 days): c (% TGI in the range of 25-49)
- Tumor Growth Inhibition (%) (HCT116; HCT116, 30 mg/kg once daily IP, vehicle DMSO, 10 days): c (% TGI in the range of 25-49)
- Tumor Growth Inhibition (%) (DU145; [10]): d (% TGI in the range of 0-24)

SMILES: O=C(Cc1ccccc1)NC(=S)Nc1ccc(Oc2ccnc3cc(C(=O)N4CCCC4)sc23)c(F)c1 [Example 37, 1-{3-Fluoro-4-[2-(pyrrolidine-1-carbonyl)-thieno[3,2-b]pyridin-7-yloxy]-phenyl}-3-phenylacetyl-thiourea]
- IC50 [1]: 50 to 250 nM
- IC50 (VEGF receptor KDR): < 50 nM
- IC50 (TPR-MET fusion protein): < 50 nM
- Tumor Growth Inhibition (%) (U87 cells; [4]): b (% TGI in the range of 50-74)
- Tumor Growth Inhibition (%) (U87 cells; [6]): c (% TGI in the range of 25-49)
- Tumor Growth Inhibition (%) (A431 cells): b (% TGI in the range of 50-74)
- Tumor Growth Inhibition (%) (A549; [2]): c (% TGI in the range of 25-49)
- Tumor Growth Inhibition (%) (DU145; [10]): d (% TGI in the range of 0-24)
- Tumor Growth Inhibition (%) (DU145; [11]): d (% TGI in the range of 0-24)

SMILES: O=C(Cc1ccccc1)NC(=S)Nc1ccc(Oc2ccnc3cc(C(=O)N4CC[C@@H](O)C4)sc23)c(F)c1 [Example 38, (R)-N-(3-Fluoro-4-(2-(3-hydroxypyrrolidine-1-carbonyl)thieno[3,2-b]pyridin-7-yloxy)phenylcarbamothioyl)-2-phenylacetamide]
- Tumor Growth Inhibition (%) (A431 cells): c (% TGI in the range of 25-49)
- Tumor Growth Inhibition (%) (A549; [2]): c (% TGI in the range of 25-49)

SMILES: Cn1cnnc1-c1cc2nccc(Oc3ccc(NC(=S)NC(=O)Cc4ccccc4)cc3F)c2s1 [Example 75, N-(3-Fluoro-4-(2-(4-methyl-4H-1,2,4-triazol-3-yl)thieno[3,2-b]pyridin-7-yloxy)phenylcarbamothioyl)-2-phenylacetamide]
- IC50 (VEGF receptor KDR): < 50 nM
- Tumor Growth Inhibition (%) (U87 cells; [3]): d (% TGI in the range of 0-24)
- Tumor Growth Inhibition (%) (U87 cells; [5]): c (% TGI in the range of 25-49)
- Tumor Growth Inhibition (%) (U87 cells; [2]): c (% TGI in the range of 25-49)
- Tumor Growth Inhibition (%) (U87 cells; [7]): b (% TGI in the range of 50-74)
- Tumor Growth Inhibition (%) (SKLMS cells; [3]): b (% TGI in the range of 50-74)
- Tumor Growth Inhibition (%) (A549; [9]): b (% TGI in the range of 50-74)
- Tumor Growth Inhibition (%) (DU145; [10]): c (% TGI in the range of 25-49)

SMILES: Cn1cnc(-c2cc3nccc(Oc4ccc(NC(=S)NC(=O)Cc5ccccc5)cc4F)c3s2)c1 [Example 76, N-(3-Fluoro-4-(2-(1-methyl-1H-imidazol-4-yl)thieno[3,2-b]pyridin-7-yloxy)phenylcarbamothioyl)-2-phenylacetamide]
- Tumor Growth Inhibition (%) (A549; [2]): b (% TGI in the range of 50-74)
- Tumor Growth Inhibition (%) (A549; [8]): b (% TGI in the range of 50-74)
- Tumor Growth Inhibition (%) (A549; [12]): c (% TGI in the range of 25-49)
- Tumor Growth Inhibition (%) (DU145; 75 mg/kg once daily PO, vehicle 5% DMSO - 1% Tween-80 in water): c (% TGI in the range of 25-49)

SMILES: CCn1cnc(-c2cc3nccc(Oc4ccc(NC(=S)NC(=O)Cc5ccccc5)cc4F)c3s2)c1 [Example 77, N-(4-(2-(1-Ethyl-1H-imidazol-4-yl)thieno[3,2-b]pyridin-7-yloxy)-3-fluorophenylcarbamothioyl)-2-phenylacetamide]
- Tumor Growth Inhibition (%) (U87 cells; [12]): b (% TGI in the range of 50-74)
- Tumor Growth Inhibition (%) (SKLMS cells; 75 mg/kg once daily PO, vehicle 5% DMSO - 1% Tween-80 in water, 6 days): d (% TGI in the range of 0-24)
- Tumor Growth Inhibition (%) (A549; [5]): b (% TGI in the range of 50-74)
- Tumor Growth Inhibition (%) (A549; [8]): b (% TGI in the range of 50-74)

SMILES: CC(C)(C)OC(=O)NC1CCN(C(=O)c2cc3ncnc(Oc4ccc(NC(=S)NC(=O)Cc5ccccc5)cc4F)c3s2)C1 (stereo not shown) [Example 148, tert-Butyl 1-(4-(2-fluoro-4-(3-(2-phenylacetyl)thioureido)phenoxy)thieno[3,2-d]pyrimidine-6-carbonyl)pyrrolidin-3-ylcarbamate]
- Tumor Growth Inhibition (%) (U87 cells; 30 mg/kg once daily IP, vehicle 50/50 DMSO:40/60 PEG/0.2 N HCl in saline, 10 days): c (% TGI in the range of 25-49)
- Tumor Growth Inhibition (%) (DU145; [11]): c (% TGI in the range of 25-49)

SMILES: Cl.O=C(Cc1c(F)cccc1F)NC(=S)Nc1ccc(Oc2ccnc3cc(C(=O)N4CCCC4)sc23)c(F)c1 [Example 157, 2-(2,6-Difluorophenyl)-N-(3-fluoro-4-(2-(pyrrolidine-1-carbonyl)thieno[3,2-b]pyridin-7-yloxy)phenylcarbamothioyl)acetamide hydrochloride]
- Tumor Growth Inhibition (%) (A431 cells): c (% TGI in the range of 25-49)
- Tumor Growth Inhibition (%) (A549; [2]): c (% TGI in the range of 25-49)

SMILES: CCn1cnc(-c2cc3nccc(Oc4ccc(NC(=S)NC(=O)Cc5ccccc5F)cc4F)c3s2)c1 [Example 242, 1-{4-[2-(1-Ethyl-1H-imidazol-4-yl)-thieno[3,2-b]pyridin-7-yloxy]-3-fluoro-phenyl}-3-[2-(2-fluoro-phenyl)-acetyl]-thiourea]
- Tumor Growth Inhibition (%) (U87 cells; [12]): a (% TGI in the range of 75-100)
- Tumor Growth Inhibition (%) (HCT116; HCT116, 75 mg/kg once daily PO, vehicle 5% DMSO - 1% Tween-80 in water, 14 days): b (% TGI in the range of 50-74)
